Assay results published in US8519110B2, “mRNA cap analogs” (Board of Supervisors of Louisiana State University And …, priority 2008, dated 2013).

What was measured:
[1] = test system: rabbit reticulocyte lysate system; experiment: In vitro translation efficiency of capped luciferase mRNA, method I transcripts; assay type: biochemical; conditions: for Translation efficiency in comparison with m^7GpppG-LUC mRNA, Experiment No. 1: experiment 1; for Translation efficiency in comparison with m^7GpppG-LUC mRNA, Experiment No. 2: experiment 2; for Translation efficiency in comparison with m^7GpppG-LUC mRNA, Experiment No. 3: experiment 3; for Translation efficiency in comparison with m^7GpppG-LUC mRNA, Mean: mean of experiments
Description: A DNA template for in vitro transcription was synthesized by PCR from the plasmid SP6p-5′UTR β-globin-LUCiferase. The template contained the SP6 promoter followed by the 5′-UTR sequence of rabbit β-globin mRNA and the entire firefly luciferase mRNA coding region. A typical in vitro transcription reaction mixture (50 μl) contained SP6 transcription buffer (Fermentas, cat. no. EP0131), 2 μg of DNA template, 2 U/μl RiboLock Ribonuclease Inhibitor (Fermentas), 2 mM each of ATP, CTP, and UTP, 0.1 mM GTP, and 1 mM dinucleotide cap analog. The reaction mixture was incubated at 37° C. for 5 min before the addition of SP6 RNA polymerase (Fermentas) to a final concentration of 2 U/μl. After 30 min of incubation at 37° C., GTP was added to a final concentration of 1 mM, and the reaction continued for an additional 90 min. The reaction mixtures were then treated with 1 U of DNase RQ1 (RNAse-free, Promega) per μg of template DNA in transcription buffer at 37° C. for 20 min. RNA transcripts were purified on DEPC-treated Sephadex G-50 spin columns (Pharmacia). The integrity of transcripts was confirmed by electrophoresis on a non-denaturating, 1% agarose gel. Concentrations were determined spectrophotometrically. The transcripts were stored at −80° C. until used.
(§1) A micrococcal nuclease-treated rabbit reticulocyte lysate system (Flexi Rabbit Reticulocyte Lysate System, Promega) was used for in vitro translation. Translation reactions were performed in 10 μl for 60 min at 30° C. A typical reaction mixture contained 40% reticulocyte lysate, the 20 “standard” amino acids (0.01 mM each), MgCl2 (1.2 mM), potassium acetate (170 mM), and mRNA (five different concentrations of each transcript, ranging from 0.25 to 4 μg/ml). Luciferase activity was measured in a luminometer (Glomax, Promega). Linear regression was used to fit the data points (luciferase activity versus concentration of mRNA transcript), and translational efficiency was defined as the slope of this line. The relative translational efficiencies of the test mRNAs were compared to that of m^7GpppG-capped luciferase mRNA, the latter being defined as 1.0.

eIF4E = eIF4E (Mus musculus, UniProt P63073); experiment: Binding affinity of cap analogs to eIF4E by fluorescence titration; conditions: equilibrium association constant; for Cap analog/eIF4E affinity (KAS): 20 °C, pH 7.2, ionic strength 150 mM
eIF4E, sequence (P63073 28-217 limits assumed): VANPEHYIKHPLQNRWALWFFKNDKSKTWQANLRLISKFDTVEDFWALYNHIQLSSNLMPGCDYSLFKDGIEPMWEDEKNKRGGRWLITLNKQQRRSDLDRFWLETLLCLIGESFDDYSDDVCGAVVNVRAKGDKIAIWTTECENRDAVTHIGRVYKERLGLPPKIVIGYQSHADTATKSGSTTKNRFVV
Description: Fluorescence titration measurements were carried out on an LS-50B or LS-55 spectrofluorometer (Perkin Elmer Co.) at 20.0±0.2° C. in 50 mM HEPES/KOH (pH 7.2), 0.5 mM EDTA, and 1 mM DTT, with ionic strength adjusted to 150 mM by addition of KCl. Various cap analogue solutions, of increasing concentration, were added in 1 μl aliquots to 1.4 ml of 0.1 or 0.2 μM protein solutions. Fluorescence intensities were measured with excitation at 280 nm or 295 nm with 2.2 nm bandwidth, and detection at 337 nm with 4 nm bandwidth and a 290-nm cut-off filter. The data were corrected for sample dilution and inner filter effects. Equilibrium association constants (Kas) were determined by fitting the theoretical dependence of fluorescence intensity on cap analog concentration to the experimental data, as otherwise described in A. Niedźwiecka et al., “Biophysical studies of eIF4E cap-binding protein: recognition of mRNA 5′ cap structure and synthetic fragments of eIF4G and 4E-BP1 proteins,” J. Mol. Biol., vol. 312, pp. 615-635 (2002). The concentration of protein was allowed to be a free parameter in the equilibrium equation, to determine the amount of “active” protein. The final Kas was calculated as a weighted average of three to ten independent titrations, with the weights taken as the reciprocals of the squares of the numerical standard deviations. Numerical nonlinear least-square regression analysis was performed using ORGIN 6.0 (Microcal Software Inc., USA).
The binding affinities of eukaryotic eIF4E for various cap analogs were determined by fluorescence quenching. This biophysical test allows one to predict the potential efficacy of cap analogs in translation. Those having higher affinities for eIF4E than the unmodified cap analog (m^7GpppG) are expected to be better recognized by the translational machinery, leading to higher translational efficiencies. They also are expected to compete more effectively with unmodified mRNA when free cap dinucleotides are used to inhibit translation. See generally E. Grudzien-Nogalska et al., “Synthesis of anti-reverse cap analogs (ARCAs) and their applications in mRNA translation and stability,” Methods Enzymol., vol. 431, pp. 203-227 (2007).

Human DcpS = molecular target: T1, Human DcpS (Homo sapiens, UniProt Q96C86); experiment: Assay of susceptibility to DcpS (RP HPLC); assay type: biochemical
T1 construct: made in house; host or cells: Escherichia coli
T1 sequence (Q96C86 1-337): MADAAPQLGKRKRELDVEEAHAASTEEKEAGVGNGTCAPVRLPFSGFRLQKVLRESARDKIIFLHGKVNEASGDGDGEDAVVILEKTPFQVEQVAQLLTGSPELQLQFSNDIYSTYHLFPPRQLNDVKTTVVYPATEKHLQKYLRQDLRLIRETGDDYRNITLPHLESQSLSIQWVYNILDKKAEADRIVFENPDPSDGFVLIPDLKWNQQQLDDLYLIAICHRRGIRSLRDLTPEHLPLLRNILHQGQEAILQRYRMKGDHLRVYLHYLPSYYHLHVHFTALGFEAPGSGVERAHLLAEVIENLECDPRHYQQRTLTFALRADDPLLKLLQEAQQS
Description: Human DcpS was expressed in Escherichia coli as described in L. Cohen et al., “Nematode m^7GpppG and m3^2,2,7GpppG decapping: activities in Ascaris embryos and characterization of C. elegans scavenger DcpS,” RNA, vol. 10, pp. 1609-1624 (2004). A 15 μM solution of the protein in 20 mM Tris buffer, pH 7.5, containing 50 mM KCl, 0.2 mM EDTA, 1 mM DTT, 0.5 mM PMSF, and 20% glycerol was stored at −80° C. until used. Enzymatic reactions were carried out at 30° C. in 500 μl of 50 mM Tris-HCl, pH 7.9, containing 20 mM MgCl2 and 60 mM (NH4)2SO4. A 40 μM solution of the selected cap analog was treated with 5.0 μl of DcpS for 120 min. At times of 10, 30, 60, and 120 min, a 100-μl sample was collected from the reaction mixture and deactivated by incubation at 90° C. for 2 min. Samples were analyzed without further treatment by analytical RP HPLC with a linear gradient of methanol in 0.1 M KH2PO4, pH 6.0, from 0-50% over 15 min.

[2] = test system: rabbit reticulocyte lysate system; experiment: In vitro translation efficiency of capped luciferase mRNA with 31-base poly(A) tail, method II transcripts; assay type: biochemical; conditions: for Translation efficiency in comparison to m^7GpppG-LUC-(A)31 mRNA, Experiment No. 4: experiment 4; for Translation efficiency in comparison to m^7GpppG-LUC-(A)31 mRNA, Experiment No. 5: experiment 5; for Translation efficiency in comparison to m^7GpppG-LUC-(A)31 mRNA, Mean: mean of experiments
Description: Capped, polyadenylated luciferase mRNAs were synthesized in vitro by PCR from a dsDNA template that contained the SP6 promoter, the 5′-UTR sequence of rabbit β-globin mRNA, the entire firefly luciferase coding region, and 31 adenosine residues. A typical transcription reaction mixture (40 μl) contained SP6 transcription buffer (Fermentas), 0.7 ug of DNA template, 1 U/μl RiboLock Ribonuclease Inhibitor (Fermentas), 0.5 mM each of ATP, CTP, and UTP, 0.1 mM GTP, and 0.5 mM dinucleotide cap analog. The reaction mixture was incubated at 37° C. for 5 min before addition of SP6 RNA polymerase (Fermentas) to a final concentration of 1 U/μl, and incubation then continued for 45 min at 37° C. The reaction mixture was treated with DNase as in Method I. RNA transcripts were purified with NucAway Spin Columns (Ambion). The integrity of transcripts and quantitation was performed as in Method I.
as §1

[3] = 40 μM cap analog, 30° C., up to 120 min

| Cap analog/eIF4E affinity (KAS) (eIF4E) [μM^−1] | Susceptibility to DcpS (Human DcpS; [3]) | Translation efficiency in comparison to m^7GpppG-LUC-(A)31 mRNA, Experiment No. 4 [2] | Translation efficiency in comparison to m^7GpppG-LUC-(A)31 mRNA, Experiment No. 5 [2] | Translation efficiency in comparison to m^7GpppG-LUC-(A)31 mRNA, Mean [2] | Susceptibility to DcpS (Human DcpS; Table 3) | SMILES | also measured |
| --- | --- | --- | --- | --- | --- | --- | --- |
|  |  |  |  |  |  | [BH3-]P(=O)(OP(=O)(O)OCC1OC(n2cnc3c(=O)[nH]c(N)nc32)C(O)C1O)OP(=O)(O)OCC1OC(n2c[n+](C)c3c(=O)[nH]c(N)nc32)C(O)C1O (mixture of isomers) [m^7GppBH3pG] | Translation efficiency in comparison with m^7GpppG-LUC mRNA, Experiment No. 1 [1]: 1.66; Translation efficiency in comparison with m^7GpppG-LUC mRNA, Experiment No. 2 [1]: 1.42; Translation efficiency in comparison with m^7GpppG-LUC mRNA, Experiment No. 3 [1]: 1.14; Translation efficiency in comparison with m^7GpppG-LUC mRNA, Mean [1]: 1.41; In vitro translational efficiency, method I ([1]; relative to m^7GpppG-capped luciferase mRNA = 1.0): 1.41 ± 0.26 |
| 39.4 ± 1.2 | resistant | 1.87 | 3.44 | 2.66 |  | [BH3-]P(=O)(OP(=O)(O)OCC1OC(n2cnc3c(=O)[nH]c(N)nc32)C(O)C1O)OP(=O)(O)OCC1OC(n2c[n+](C)c3c(=O)[nH]c(N)nc32)C(OC)C1O (single isomer, unassigned) [m2^7,2′-OGppBH3pG (D1), m2^7,2′-OGppBH3pG] |  |
| 13.2 ± 0.2 | resistant | 3.16 | 3.53 | 3.35 |  | [BH3-]P(=O)(OP(=O)(O)OCC1OC(n2cnc3c(=O)[nH]c(N)nc32)C(O)C1O)OP(=O)(O)OCC1OC(n2c[n+](C)c3c(=O)[nH]c(N)nc32)C(OC)C1O (single isomer, unassigned) [m2^7,2′-OGppBH3pG (D2), m2^7,2′-OGppBH3pG] |  |
|  |  |  |  |  | resistant | C[n+]1cn(C2OC(COP(O)(=[Se])OP(=O)([O-])OP(=O)(O)OCC3OC(n4cnc5c(=O)[nH]c(N)nc54)C(O)C3O)C(O)C2O)c2nc(N)[nH]c(=O)c21 (single isomer, unassigned) [m^7GpSeppG (D1), m^7GpSeppG] |  |
|  |  |  |  |  | resistant | C[n+]1cn(C2OC(COP(O)(=[Se])OP(=O)([O-])OP(=O)(O)OCC3OC(n4cnc5c(=O)[nH]c(N)nc54)C(O)C3O)C(O)C2O)c2nc(N)[nH]c(=O)c21 (single isomer, unassigned) [m^7GpSeppG (D2), m^7GpSeppG] |  |
|  |  | 0.19 | 0.18 | 0.19 |  | Nc1nc2c(ncn2[C@@H]2O[C@H](COP(=O)(O)OP(=O)(O)OP(=O)(O)OC[C@H]3O[C@@H](n4cnc5c(N)ncnc54)[C@H](O)[C@@H]3O)[C@@H](O)[C@H]2O)c(=O)[nH]1 [ApppG, reference compound] | Translation efficiency in comparison with m^7GpppG-LUC mRNA, Experiment No. 1 [1]: 0.34; Translation efficiency in comparison with m^7GpppG-LUC mRNA, Experiment No. 2 [1]: 0.55; Translation efficiency in comparison with m^7GpppG-LUC mRNA, Experiment No. 3 [1]: 0.53; Translation efficiency in comparison with m^7GpppG-LUC mRNA, Experiment No. 4 ([1]; experiment 4): 0.48; Translation efficiency in comparison with m^7GpppG-LUC mRNA, Mean [1]: 0.48; Translation efficiency in comparison to m^7GpppG-LUC-(A)31 mRNA, Experiment No. 1 ([2]; experiment 1): 0.27; Translation efficiency in comparison to m^7GpppG-LUC-(A)31 mRNA, Experiment No. 2 ([2]; experiment 2): 0.16; Translation efficiency in comparison to m^7GpppG-LUC-(A)31 mRNA, Experiment No. 3 ([2]; experiment 3): 0.14 |
| 10.8 ± 0.3 | hydrolyzed |  |  |  | hydrolyzed | CO[C@@H]1[C@H](O)[C@@H](COP(=O)(O)OP(=O)([O-])OP(=O)(O)OC[C@H]2O[C@@H](n3cnc4c(=O)[nH]c(N)nc43)[C@H](O)[C@@H]2O)O[C@H]1n1c[n+](C)c2c(O)nc(N)nc21 [m2^7,2′-OGpppG, reference compound] | Cap analog-eIF4E affinity (KAS) (eIF4E; Table 3): 10.8 ± 0.3 μM^−1 |
| 5.0 ± 0.2 | hydrolyzed |  |  |  |  | C[n+]1cn([C@@H]2O[C@H](COP(=O)(O)OP(=O)(O)OP(=O)(O)OC[C@H]3O[C@@H](n4c[n+](C)c5c(=O)[nH]c(N)nc54)[C@H](O)[C@@H]3O)[C@@H](O)[C@H]2O)c2nc(N)[nH]c(=O)c21 [m^7Gpppm^7G, reference compound] |  |

| SMILES | Cap analog/eIF4E affinity (KAS) (eIF4E) [μM^−1] | Susceptibility to DcpS (Human DcpS; [3]) | Translation efficiency in comparison to m^7GpppG-LUC-(A)31 mRNA, Experiment No. 4 [2] | Translation efficiency in comparison to m^7GpppG-LUC-(A)31 mRNA, Experiment No. 5 [2] | Translation efficiency in comparison to m^7GpppG-LUC-(A)31 mRNA, Mean [2] | Susceptibility to DcpS (Human DcpS; Table 3) | also measured |
| --- | --- | --- | --- | --- | --- | --- | --- |
| CO[C@@H]1[C@H](O)[C@@H](COP(=O)([O-])OP(O)(=S)OP(=O)(O)OC[C@H]2O[C@@H](n3cnc4c(=O)[nH]c(N)nc43)[C@H](O)[C@@H]2O)O[C@H]1[n+]1cn(C)c2c(=O)[nH]c(N)nc21 (single isomer, unassigned) [m2^7,2′-OGppSpG (D1), m2^7,2′-OGppSpG, reference compound] |  |  | 2.92 | 2.83 | 2.88 |  |  |
| CO[C@@H]1[C@H](O)[C@@H](COP(=O)([O-])OP(O)(=S)OP(=O)(O)OC[C@H]2O[C@@H](n3cnc4c(=O)[nH]c(N)nc43)[C@H](O)[C@@H]2O)O[C@H]1[n+]1cn(C)c2c(=O)[nH]c(N)nc21 (single isomer, unassigned) [m2^7,2′-OGppSpG (D2), m2^7,2′-OGppSpG, reference compound] |  |  | 3.20 | 3.02 | 3.11 |  |  |
